From PubChem BioAssay AID330 (DTP/NCI, 2004)
Where “and” joins values, the source holds several entries; their conditions need not be identical. Equal values may be shown once. Toxic doses and inconclusive results are not listed. How the source made its calls: active means survival T/C of 150% or more; inactive means T/C below 125% in these data.

Tested on: P388 leukemia ip, CD2F1 mice, survival T/C
Test: NCI In Vivo Anticancer Drug Screen. Data for tumor model P388 Leukemia (intraperitoneal) in CD2F1 (CDF1) mice
Settings: endpoint: median survival time, higher = longer survival
Summary of the method: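 Mice carrying the transplanted tumor received test compound or vehicle. Survival was recorded in each group, and the value is the treated-group measurement divided by that of the vehicle-treated control group.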

[1] = dose: 12.5 mg/kg/injection, schedule: Q01DX009 (ip), vehicle: saline
[2] = dose: 50.0 mg/kg/injection, schedule: Q01DX009 (ip), vehicle: saline
[3] = dose: 50.0 mg/kg/injection, schedule: Q01DX005 (ip), vehicle: Klucel (hydroxypropylcellulose) (HPC)
[4] = dose: 100.0 mg/kg/injection, schedule: Q01DX005 (ip), vehicle: Klucel (hydroxypropylcellulose) (HPC)
[5] = dose: 200.0 mg/kg/injection, schedule: Q01DX005 (ip), vehicle: Klucel (hydroxypropylcellulose) (HPC)
[6] = dose: 12.5 mg/kg/injection, schedule: Q01DX005 (ip), vehicle: saline with Tween-80
[7] = dose: 25.0 mg/kg/injection, schedule: Q01DX005 (ip), vehicle: saline with Tween-80
[8] = dose: 50.0 mg/kg/injection, schedule: Q01DX005 (ip), vehicle: saline with Tween-80
[9] = dose: 100.0 mg/kg/injection, schedule: Q04DX002 (ip), vehicle: Klucel (hydroxypropylcellulose) (HPC)
[10] = dose: 200.0 mg/kg/injection, schedule: Q04DX002 (ip), vehicle: Klucel (hydroxypropylcellulose) (HPC)
[11] = dose: 50.0 mg/kg/injection, schedule: Q01DX005 (ip), vehicle: saline
[12] = dose: 100.0 mg/kg/injection, schedule: Q01DX005 (ip), vehicle: saline
[13] = dose: 100.0 mg/kg/injection, schedule: Q01DX009 (ip), vehicle: saline
[14] = dose: 200.0 mg/kg/injection, schedule: Q01DX009 (ip), vehicle: saline

Measured: T/C

CCCCCCCCCCCCCCC[N+]1([O-])CCCCC1
inactive: [1] 101 % of control | dose: 25.0 mg/kg/injection, schedule: Q01DX009 (ip), vehicle: saline 95 % of control | [2] 99 % of control and 101 % of control

CCOP(=S)(N/N=C(/c1ccc(C)s1)C(F)(F)F)OCC
inactive: [3] 104 % of control | [4] 110 % of control | [5] 114 % of control

CCCCOC(=O)c1c2nc3c(C(=O)OCCCC)ccc(C)c3oc-2c(C)c(=O)c1NC(C)=O
inactive: dose: 100.0 mg/kg/injection, schedule: Q04DX003 (ip), vehicle: Klucel (hydroxypropylcellulose) (HPC) 87 % of control | dose: 200.0 mg/kg/injection, schedule: Q04DX003 (ip), vehicle: Klucel (hydroxypropylcellulose) (HPC) 90 % of control | dose: 400.0 mg/kg/injection, schedule: Q04DX003 (ip), vehicle: Klucel (hydroxypropylcellulose) (HPC) 89 % of control

N=C1C(O)=CC(=O)C(O)=C1C(=O)O
inactive: dose: 60.0 mg/kg/injection, schedule: Q01DX005 (ip), vehicle: saline 104 % of control | dose: 120.0 mg/kg/injection, schedule: Q01DX005 (ip), vehicle: saline 103 % of control | dose: 240.0 mg/kg/injection, schedule: Q01DX005 (ip), vehicle: saline 101 % of control

O=[N+]([O-])[O-].OCCNCCNCC[OH2+].OCCNCCNCC[OH2+].[Ni+2]
inactive: dose: 3.13 mg/kg/injection, schedule: Q01DX009 (ip), vehicle: saline 88 % of control | dose: 6.25 mg/kg/injection, schedule: Q01DX009 (ip), vehicle: saline 90 % of control | [1] 102 % of control and 86 % of control

O=c1c(N=Nc2ccccc2)c[nH]n1-c1ccccc1
inactive: dose: 62.5 mg/kg/injection, schedule: Q01DX009 (ip), vehicle: saline with Tween-80 97 % of control | dose: 125.0 mg/kg/injection, schedule: Q01DX009 (ip), vehicle: saline with Tween-80 97 % of control | dose: 250.0 mg/kg/injection, schedule: Q01DX009 (ip), vehicle: saline with Tween-80 94 % of control

Clc1cccc(-c2nc3ccccc3c3ccccc23)c1
inactive: dose: 100.0 mg/kg/injection, schedule: Q04DX003 (ip), vehicle: saline with Tween-80 100 % of control | dose: 200.0 mg/kg/injection, schedule: Q04DX003 (ip), vehicle: saline with Tween-80 90 % of control | dose: 400.0 mg/kg/injection, schedule: Q04DX003 (ip), vehicle: saline with Tween-80 90 % of control

CC(C)n1c2c(c3ccccc3c1=O)C(=O)c1ccccc1-2
inactive: [6] 95 % of control | [7] 86 % of control | [8] 86 % of control

CC(=O)OCN(C)N=Nc1ccc(C(N)=O)cc1
inactive: dose: 60.0 mg/kg/injection, schedule: Q01DX005 (ip), vehicle: Klucel (hydroxypropylcellulose) (HPC) 92 % of control | dose: 120.0 mg/kg/injection, schedule: Q01DX005 (ip), vehicle: Klucel (hydroxypropylcellulose) (HPC) 95 % of control | dose: 240.0 mg/kg/injection, schedule: Q01DX005 (ip), vehicle: Klucel (hydroxypropylcellulose) (HPC) 95 % of control

CC(NNC(=S)N1CCCCCC1)c1cccc[n+]1[O-] (stereo not given)
inactive: [3] 101 % of control | [4] 101 % of control | [5] 93 % of control

CSc1nc2nc[nH]c2c(=O)[nH]1
inactive: [6] 100 % of control | [7] 100 % of control | [8] 101 % of control and 105 % of control | dose: 100.0 mg/kg/injection, schedule: Q01DX005 (ip), vehicle: saline with Tween-80 101 % of control | dose: 200.0 mg/kg/injection, schedule: Q01DX005 (ip), vehicle: saline with Tween-80 104 % of control

Cc1ccc2c(CC(C)(C)[N+]3(C)CCCC3)ccc(C(C)C)cc1-2
inactive: [9] 114 % of control | [10] 112 % of control | dose: 400.0 mg/kg/injection, schedule: Q04DX002 (ip), vehicle: Klucel (hydroxypropylcellulose) (HPC) 105 % of control

O=Cc1c(-c2ccc(Cl)cc2)nc2sccn12
inactive: dose: 100.0 mg/kg/injection, schedule: Q01DX001 (ip), vehicle: Klucel (hydroxypropylcellulose) (HPC) 93 % of control | dose: 200.0 mg/kg/injection, schedule: Q01DX001 (ip), vehicle: Klucel (hydroxypropylcellulose) (HPC) 96 % of control | dose: 400.0 mg/kg/injection, schedule: Q01DX001 (ip), vehicle: Klucel (hydroxypropylcellulose) (HPC) 93 % of control

CN1C(C)(C)CC(O)(C(=O)O)CC1(C)C
inactive: [11] 94 % of control | [12] 91 % of control | dose: 200.0 mg/kg/injection, schedule: Q01DX005 (ip), vehicle: saline 87 % of control

O=C(Nc1cccc(Cl)c1)Nn1cnnc1
inactive: [2] 101 % of control | [13] 97 % of control | [14] 91 % of control

ClCCCCN(CCN(CCCCCl)c1ccccc1)c1ccccc1
inactive: dose: 12.5 mg/kg/injection, schedule: Q04DX002 (ip), vehicle: saline 100 % of control | dose: 25.0 mg/kg/injection, schedule: Q04DX002 (ip), vehicle: saline 101 % of control

COc1cc2c(c(OC)c1OC)-c1cc3c(cc1C(OC1OC4COC(c5cccs5)OC4C(O)C1O)C1COC(=O)C1C2)OCO3 (stereo not given)
inactive: dose: 14.5 mg/kg/injection, schedule: Q01DX005 (ip), vehicle: Klucel (hydroxypropylcellulose) (HPC) 101 % of control | dose: 29.0 mg/kg/injection, schedule: Q01DX005 (ip), vehicle: Klucel (hydroxypropylcellulose) (HPC) 99 % of control | dose: 58.0 mg/kg/injection, schedule: Q01DX005 (ip), vehicle: Klucel (hydroxypropylcellulose) (HPC) 94 % of control | dose: 116.0 mg/kg/injection, schedule: Q01DX005 (ip), vehicle: Klucel (hydroxypropylcellulose) (HPC) 90 % of control

Clc1cccc(Cl)c1C(Nc1nccs1)Nc1nccs1
inactive: [3] 100 % of control | [4] 103 % of control | [5] 114 % of control

Cc1ccc(C)c(OP2(=O)NC3CCCCC3N2)c1 (stereo not given)
inactive: [9] 91 % of control | [10] 89 % of control

COc1ccc(CNCCCSC)cc1
inactive: [11] 105 % of control | [12] 110 % of control

O=C(O)CCCCC=C(c1ccccc1)c1ccccc1
inactive: dose: 50.0 mg/kg/injection, schedule: Q01DX005 (ip), vehicle: saline + Tween-80 + alcohol 101 % of control | dose: 100.0 mg/kg/injection, schedule: Q01DX005 (ip), vehicle: saline + Tween-80 + alcohol 102 % of control | dose: 200.0 mg/kg/injection, schedule: Q01DX005 (ip), vehicle: saline + Tween-80 + alcohol 101 % of control

CCCCCN(CCCCC)CCCNc1c2c(nc3ccc(OC)cc13)CCCC2
inactive: dose: 3.12 mg/kg/injection, schedule: Q01DX005 (ip), vehicle: saline 94 % of control | dose: 6.25 mg/kg/injection, schedule: Q01DX005 (ip), vehicle: saline 103 % of control | dose: 12.5 mg/kg/injection, schedule: Q01DX005 (ip), vehicle: saline 99 % of control

C=Cc1c(C)c2[nH]c1=CC1=NC(=CC3=NC(=CC4=C(C)/C(=C\NO)C(=N4)C=2)C(C)=C3CCC(=O)OC)C(CCC(=O)OC)=C1C
inactive: [3] 95 % of control | [4] 99 % of control | [5] 99 % of control

C=[CH][Sn](=[O])[CH]=C
inactive: [2] 104 % of control | [13] 105 % of control and 89 % of control | [14] 104 % of control and 88 % of control

O=C(CCC(=O)Nc1ccc(Cl)cc1Cl)CC(=O)c1ccco1
inactive: dose: 60.0 mg/kg/injection, schedule: Q01DX005 (ip), vehicle: saline with Tween-80 102 % of control | dose: 120.0 mg/kg/injection, schedule: Q01DX005 (ip), vehicle: saline with Tween-80 105 % of control | dose: 240.0 mg/kg/injection, schedule: Q01DX005 (ip), vehicle: saline with Tween-80 102 % of control

O=C1c2ccccc2C(=O)c2c(NCCCNCCO)ccc(NCCCNCCO)c21
inactive: dose: 3.75 mg/kg/injection, schedule: Q01DX005 (ip), vehicle: other 104 % of control | dose: 6.25 mg/kg/injection, schedule: Q01DX009 (ip), vehicle: water 101 % of control | dose: 7.5 mg/kg/injection, schedule: Q01DX005 (ip), vehicle: other 111 % of control | dose: 7.5 mg/kg/injection, schedule: Q01DX009 (ip), vehicle: water 110 % of control | dose: 12.5 mg/kg/injection, schedule: Q01DX009 (ip), vehicle: water 117 % of control | dose: 15.0 mg/kg/injection, schedule: Q01DX005 (ip), vehicle: other 119 % of control | dose: 15.0 mg/kg/injection, schedule: Q01DX009 (ip), vehicle: water 117 % of control | dose: 30.0 mg/kg/injection, schedule: Q01DX005 (ip), vehicle: other 120 % of control | dose: 100.0 mg/kg/injection, schedule: Q01DX009 (ip), vehicle: other 97 % of control | dose: 100.0 mg/kg/injection, schedule: Q01DX009 (ip), vehicle: water 99 % of control
